Key:
rat brain membranes = assay: Radio receptor assay (R.R.A.), an opiate binding assay: displacement of tritiated naloxone from rat brain membranes; details: based on concentration required to displace 50% of (3H)naloxone (1nM) from rat brain membranes; pH 7.4, 15 minutes, bacitracin; Met Enkephalin = 100%
mouse vas deferens = details: inhibition of electrically induced contractions, Met Enkephalin = 100%
Method: (ii) M.V.D. stands for mouse vas deferens
were performed as described in the literature

## CSCC[C@H](NC(=O)[C@H](Cc1ccccc1)NC(=O)CNC(=O)CCCC(N)Cc1ccc(O)cc1)C(N)=O (stereo partly drawn) [Analogue H211, 5-Amino-6-(4'-hydroxyphenyl)-hexanoyl-glycyl-L-phenylalanyl-L-methionine amide]
Rat brain membranes
  Activity Relative to Met Enkephalin R.R.A.: 9%
Mouse vas deferens
  Activity Relative to Met Enkephalin M.V.D.: 0.9%

From patent publication US4304715A, “Enkephalin analogues” (priority 1979, dated 1981)
